Values after ≈ are worked out from the molar mass of the structure shown. Like-named read-outs stand apart in the source and are kept apart here.
What was measured:
Kinetic solubility test = type: physicochemical; details: water, 25 °C, kinetic from dmso stock
From the text: Solubility(μmol/L)=Areafiltered×DFfiltered/Areastd×DFstd×[std]×DFstd

[1] = Pharmacokinetic studies in mice (IP and IV); type: in vivo; details: for AUC / Cmax / Tmax / half-life / concentration at 8 h / bioavailability / MRT inf: male, C57BL/6 J, mouse, plasma; for concentration at 8 h: read-out: mean plasma concentration 8 h after injection; for bioavailability: intraperitoneal, IP versus IV
[2] = system: periodontitis mice with circadian rhythm disorders; test: Ligature-induced periodontitis in circadian rhythm disordered (jet lag) mice; type: in vivo; details: for periodontal tissue destruction (HE staining): compared to DMSO-treated controls; for rhythmic expression of circadian genes in periodontal tissue: jet lag mice, 10 mg/kg IP daily for three weeks; for alveolar bone resorption (Micro-CT): jet lag periodontitis mice, 10 mg/kg IP daily, compared to DMSO; for IL-10-positive cell populations / NF-κB pathway mediators Tnf-α and Il-6: periodontal tissue; for TRAP-positive cell numbers (osteoclastic activity): relative to DMSO-treated periodontitis controls
From the text: Periodontitis has the highest incidence rate among all oral diseases and is a major cause of adult tooth loss. […] It is also reported that the inflammatory signaling pathways in periodontal tissue is over activated in periodontitis mice with circadian rhythm disorder.[40] Given this, we have substantial grounds to hypothesize that the restoration of circadian rhythms could potentially ameliorate periodontitis. According to our assumption, periodontal inflammation in circadian rhythm-disordered mice is more critical than in control mice under L:D conditions, resulting in a more severe alveolar bone resorption. Administration of Gala-SR and SR1078 is expected to restore the circadian rhythm, thereby alleviating the inflammation and reducing the alveolar bone absorption (Fig. 6a). […] The mice were initially subjected to a one-week L:D feeding regimen, followed by exposure to disordered conditions for four weeks. At the beginning of the third week, the mice received intraperitoneal injections of Gala-SR or SR1078 (10 mg/kg) or the equivalent amount of DMSO utilized to dissolve these modulators every day for three consecutive weeks. Mice without any treatment and mice treated with DMSO but kept in L:D condition were also set for controls. By the end of the fourth week, a ligature-induced periodontitis model was established as previously described,[39] and samples at different time points were collected one week later for subsequent tests (Fig. 6b).
Alveolar bones were harvested from mice and fixed after removal of soft tissues. The bones were then scanned at a resolution of 9 μm using Micro-CT (SkyScan 1176, Bruker). Images were reconstructed and quantified using InstaRecon/NRecon Research Workplace software. Metrics such as bone volume/total volume, trabecular thickness, bone surface area/bone volume, trabecular number, trabecular separation, and buccal-lingual alveolar bone resorption were used to assess differences among the mice.
(§1) Male C57BL/6 mice,[40] 2 months old, were housed under disrupted conditions for 4 weeks. From the third week, they were intraperitoneally injected with Gala-SR, SR1078, or DMSO for 3 weeks. In the fifth week, general anesthesia was administered via intraperitoneal injection of pentobarbital sodium (40 mg/kg), and a ligature was placed around the cervix of the maxillary second molar to establish the murine periodontitis model. Collect gingival tissue and liver tissue every 6 h continuously for a duration of 48 h.

[3] = system: human periodontal ligament stem cells; test: qPCR of circadian clock genes in synchronized human periodontal ligament stem cells; type: cell-based; details: synchronized hPDLSCs, 5 µM, compared to DMSO and SR1078
Method: (§2) RNA from liver, periodontal tissues and cell samples was prepared as previously described. Total RNA (1 ug) was synthesized into cDNA using […] (Vazyme). mRNA expression levels were normalized to GAPDH. Relative expression levels and enrichment contents were calculated using the comparative Ct Method. Primer information is detailed in Data file S1.
379 Figure S34. Exploration of the inhibitory effect of compound 9 on the targeting function of RORs. a.
380 Synthetic route of compound 9. b. Cytotoxicity assessment of compound 9 by CCK-8 assay. c.qPCR
381 analysis of downstream target genes (FGF21 and G6Pase) in compound 9-treated HepG2 cells(n=6).
382 d. Cotransfection of HEK293T cells with RORα or RORγ and reporters containing the FGF21 or
384 5μM each of Gala-SR and SR1078. (* represents the comparison with DMSO*P<0.05, n=4).
386 Figure S35. Impact of Gala-SR on circadian clock gene expression in periodontal ligament stem cells.
387 qPCR analysis of core clock genes at multiple time points in synchronized hPDLSCs treated with 5
391 Figure S36.Toxicity and safety evaluation in vivo.a. After intraperitoneal injection of Gala-SR and
392 SR1078 for 2 weeks, mouse serum was collected to measure […] (ALT, AST, CREA,
393 and BUN. ns, not significant) to assess the drugs' impact on liver function. b. HE staining was […]

RORα = test: G6Pase and Fgf21 mRNA in mouse liver after IP injection; type: in vivo, mice; details: 10 mg/kg IP, liver collected 24 h after injection
Method: as §2

BMAL1 = BMAL1 immunofluorescence in synchronized U2OS cells; type: cell-based, human; details: 5 µmol/L
Method: U2OS cells were seeded on coverslips and treated with drugs for 24 h. After treatment, the cells were washed 3 times with PBS and fixed with 4% paraformaldehyde at room temperature for 15 min. The cells were then permeabilized with 0.1% Triton X-100 (diluted in PBS) and blocked with 5% BSA (diluted in PBS) at room temperature for 30 min. Primary antibodies were incubated overnight at 4 °C. The next day, the cells were washed 3 times with PBST and incubated with Cy3-conjugated Affinipure Goat Anti-Rabbit IgG(H + L) secondary antibody (1:200) at room temperature for one hour, with DAPI added to stain the nuclei. After washing 3 times with PBST, images were captured using a laser confocal microscope (Nikon A1-Si).

jet lag mice = test: Clock gene mRNA in liver of jet lag mice; type: in vivo; details: mice with disordered circadian rhythms
Method: as §2, §1

[4] = design: method as in PMID 20735016; details: cited from earlier work
[5] = ip, 10 mg/kg, 10 mg/kg IP, read-out: MRTInf_obs (mean retention time)
[6] = iv, 10 mg/kg, 10 mg/kg IV, read-out: MRTInf_obs

| SMILES | solubility kinetic at 2 h (Kinetic solubility test) [µM] | AUC/D ([1]; 10 mg/kg IP) [kg·ng·h/mL/mg] | AUC/D ([1]; 10 mg/kg IV) [kg·ng·h/mL/mg] | AUC ([1]; 10 mg/kg IP) [ng·h/mL] | Cmax ([1]; 10 mg/kg IP) [ng/mL] | Tmax ([1]; 10 mg/kg IP) [min] | half-life ([1]; 10 mg/kg IP) [min] | concentration at 8 h ([1]; 10 mg/kg IP) [ng/mL] | AUC ([1]; 10 mg/kg IV) [ng·h/mL] | Cmax ([1]; 10 mg/kg IV) [ng/mL] | Tmax ([1]; 10 mg/kg IV) [min] | half-life ([1]; 10 mg/kg IV) [min] | bioavailability ([1]; 10 mg/kg) [%] | MRT inf [1, 5] [h] | MRT inf [1, 6] [h] | periodontal tissue destruction (HE staining) [2] | rhythmic expression of circadian genes in periodontal tissue [2] | alveolar bone resorption (Micro-CT) [2] | IL-10-positive cell populations [2] | NF-κB pathway mediators Tnf-α and Il-6 [2] | other results |
| --- | --- | --- | --- | --- | --- | --- | --- | --- | --- | --- | --- | --- | --- | --- | --- | --- | --- | --- | --- | --- | --- |
| O=C(Nc1ccc(C(OCO[C@@H]2O[C@H](CO)[C@H](O)[C@H](O)[C@H]2O)(C(F)(F)F)C(F)(F)F)cc1)c1ccc(C(F)(F)F)cc1 [Gala-SR] | 282 (≈ 176 µg/mL) | 607.73 | 817.62 | 6080 | 1310 | 30 | 206 | 202 | 8180 | 4990 | 30 | 149 | ~74.3 | 4.5 | 2.97 | attenuated periodontal tissue destruction | restored their rhythmic expression | significantly reduced alveolar bone resorption | markedly increased | significantly downregulated | TRAP-positive cell numbers (osteoclastic activity) [2]: marked reduction; rhythmic expression amplitude of BMAL1, PER1, and PER2 [3]: more effectively enhanced; G6Pase and FGF21 expression in mice liver compared to SR1078 (RORα): significantly upregulated; expression of BMAL1 (immunofluorescence) (BMAL1): enhance the expression of BMAL1; circadian rhythm of clock gene expression in liver tissue (jet lag mice): effectively restored |
| O=C(Nc1ccc(C(O)(C(F)(F)F)C(F)(F)F)cc1)c1ccc(C(F)(F)F)cc1 [SR1078, reference compound] | 4.15 (≈ 1.79 µg/mL) | 190.962 | 254.24 | 1910 | 1810 | 30 | 58.2 | 2.96 | 2540 | 7130 | 30 | 58.8 | ~75.1 | 1.19 | 0.487 | attenuated periodontal tissue destruction | restored their rhythmic expression | significantly reduced alveolar bone resorption | markedly increased | significantly downregulated | MRTInf_obs (mean retention time) ([1]; 10 mg/kg IP, 10 mg/kg): 1.194 h; TRAP-positive cell numbers (osteoclastic activity) [2]: marked reduction; expression of BMAL1 (immunofluorescence) (BMAL1): enhance the expression of BMAL1; safe dose for in vitro experiments ([4]; in vitro): 5 µmol/L; safe dose for animal studies ([4]; mice): 10 mg/kg |

Source: PMC12575728, “Galactose-modified small molecule modulator targets RORα to enhance circadian rhythm and alleviate periodontitis-associated alveolar bone loss” (Bone Research, 2025)
